According to ChEMBL document CHEMBL1128772, “Methylenedioxyphenyl substituted compounds from Piper species as inhibitors of liver microsome-mediated aflatoxin B1-DNA binding in vitro” (Bioorg Med Chem Lett, 1995):

What was measured:
Nucleic Acid [1] = assay: In vitro binding affinity to rat liver microsome-mediated AFB1-DNA using [3H]- AFB1 radioligand assay at concentration of 10 uM; format: microsomes
Nucleic Acid [2] = assay: Tested in vitro for inhibition of rat liver microsome-mediated AFB1-DNA at concentration of 50 uM; format: microsomes
Nucleic Acid [3] = assay: In vitro binding affinity to rat liver microsome-mediated AFB1-DNA using [3H]- AFB1 radioligand assay at concentration of 100 uM; format: microsomes
Nucleic Acid [4] = assay: Tested in vitro for inhibition of rat liver microsome-mediated AFB1-DNA at concentration of 100 uM; format: microsomes
Nucleic Acid [5] = assay: In vitro binding affinity to rat liver microsome-mediated AFB1-DNA using [3H]- AFB1 radioligand assay at concentration of 50 uM
Nucleic Acid [6] = assay: Tested in vitro for inhibition of rat liver microsome-mediated AFB1-DNA at concentration of 10 uM; format: microsomes

SMILES	Binding (pM 30min-1 (mg of DNA)-1) (Nucleic Acid [1])	inhibition (Nucleic Acid [2])	Binding (pM 30min-1 (mg of DNA)-1) (Nucleic Acid [3])	inhibition (Nucleic Acid [4])	Binding (pM 30min-1 (mg of DNA)-1) (Nucleic Acid [5])	inhibition (Nucleic Acid [6])
C=CCC1=C[C@]2(OC)[C@H](C)[C@@H](c3ccc4c(c3)OCO4)O[C@]2(OC)C[C@@H]1O	91	64%	24.8	81%	48	31%
O=C(/C=C/C=C/c1ccc2c(c1)OCO2)N1CCCCC1	96.6	47%	56.6	57%	70	27%
c1cc2c(cc1[C@H]1OC[C@H]3[C@@H]1CO[C@H]3c1ccc3c(c1)OCO3)OCO2	105	42%	68.2	48%	76.5	21%
COC(=O)/C=C/C=C/c1ccc2c(c1)OCO2	110	42%	50.7	61%	76	16%
C=CCC1=C[C@]2(OC)[C@H](C)[C@@H](c3ccc4c(c3)OCO4)O[C@]2(OC)CC1=O	127	21%	108	23%	110	9%
C=CCC1=C[C@@](OC)([C@H](C)Cc2ccc3c(c2)OCO3)C(OC)=CC1=O	124	12%	122	13%	123	11%
